In patent US7829331B2, “Use of urea-adjuvated polypeptides for diagnosis, prophylaxis and treatment” (priority 2002, dated 2010):

Key:
PBMC [1] = assay: Influence of urea on the vitality of PBMC (Trypan blue counting); type: cell-based
Experimental: In order to test the influence of urea on the cell vitality, PBMC, as described in Example 2, were purified from the heparinised whole blood of 3 healthy donors ([…]) and respectively 1×10^6 cells in four replicates in T-cell medium (RPMI 1640 with 5% human serum, 2 mM glutamine and 100 U/ml penicillin/100 μg/ml streptomycin (all components from PanSystems, Aidenbach)) was mixed with increasing concentrations of urea (0, 0.05, 0.1, 0.2, 0.3, 0.4, 0.8 or 1.6 mol/liter) and incubated in wells of a 48-well microtitre plate for 17 hours in an incubator with humidified atmosphere and 5% CO2 gassing at 37° C. An 8M urea stock solution which was mixed with 2M NaCl and 2 mM DTE was used for these experiments. The cells were then resuspended in the cultivation formulation by repeatedly pipetting the medium on and off and the total number of cells and the ratio of the living to dead cells was determined using a Neubauer “improved” counting chamber after staining with a Trypan blue solution (0.5% w/v).

PBMC [2] = assay: IFN-γ ELIspot of PBMC incubated with urea; type: cell-based, human; conditions: 24 hours; for IFN-γ secretion from PBMCs: donor one
Experimental: Furthermore, it should be clarified by ELIspot analyses whether urea in populations of purified PBMCs triggers the secretion of cytokines, especially IFN-γ. For this purpose, 96-well nitrocellulose-coated microtitre plates, as described in detail in Example 2, were coated with a monoclonal anti-human IFN-γ antibody (Hölzl, Cologne) (5 μg/ml in PBS) and incubated overnight at 4° C. The antibody solution was pipetted off and the plates were washed four times using 200 μl PBS/formulation in each case. In a following step non-specific binding sites were blocked by adding 200 μl of blocking medium in each case (RPMI with 10% FCS) during a one-hour incubation at 37° C.
PBMC of a healthy donor ([…]) were taken up in a concentration of respectively 2×10^5 purified PBMC/150 μL in T-cell medium containing different urea concentrations (0, 0.05, 0.1, 0.2, 0.3, 0.4, 0.8, and 1.6 mol/liter) (5 replicates each) and the stimulation formulations were incubated for 24 hours in an incubator with a humidified atmosphere with 5% CO2 gassing at 37° C. An 8M urea stock solution which was mixed with 2M NaCl and 2 mM DTE was used for these experiments. The cell suspension was then drawn off and any cells still adhering were removed by washing six times (in each case 200 μl PBS with 0.1% Tween 20, 3 min incubation with washing buffer in each case). The secondary biotinylated antibody (1 μg/ml in PBS, 100 μl/formulation in each case) was then added; the plates were incubated for 2 hours at RT, then washed (6 times, 200 μl PBS/formulation in each case) and incubated for 1 hour with a streptavidin alkaline phosphatase (AP) conjugate (1 μg/ml in PBS; 100 μl/formulation in each case; Hölzl, Cologne). After a last washing step (6 times 200 μl PBS/formulation in each case), the colour reaction took place by adding the enzyme substrate NBT/BCIP (Boehringer, Mannheim). For this purpose a staining solution was prepared [200 μl NBT/BCIP-stock solution to 10 ml staining buffer (0.1 M tris-buffer, pH 9.5 with 0.05 M MgCl2, 0.1 M NaCl)] and 100 μl/formulation was used in each case.
After 10 min the calorimetric reaction was stopped by washing the plates with deionised water (Biosys 2000, BioSys, Karben).

rabbit = assay: Immunisation of a rabbit with urea-adjuvated BZLF1 polypeptide, serum tested in the immunoblot; type: in vivo; conditions: intramuscular, 8M urea
Experimental: In order to test the suitability of urea-adjuvated BZLF-1 polypeptide, 30 μg of BZLF1 polypeptide in 8M urea was adjuvated with Hunters Titermax as specified by the manufacturer (Sigma) and administered intramuscularly to a rabbit. The animal was re-immunised with the same immunogen 4 and 8 week as after the basic immunisation. After a further 3 weeks, blood was taken from the animal and the serum obtained therefrom was tested in different dilutions (1:2000; 1:10000 and 1:50000) in the immunoblot for the presence of BZLF1 specific antibodies. For this purpose BZLF1 polypeptide produced recombinantly in E. coli in various concentrations (20 ng, 100 ng and 500 ng) was separated in a 12.5% SDS gel and the proteins were then transferred onto nitrocellulose. After the protein transfer the still-free protein binding sites on the nitrocellulose were saturated by incubating with a 5% solution of skimmed milk powder in TBS (500 mM NaCl, 25 mM Tris pH 7.5), shaking slightly. The Blot was then washed four times with TTBS for at least 10 min before it was incubated for 1 to 12 hours with the corresponding dilution of the rabbit serum in TBS. […]

NC(N)=O [urea]
number of dead cells (PBMC [1]): significantly increased number of dead cells
Living/dead (PBMC [1]; donor one, urea 0.05 mol/liter, 17 hours): 2.2
Living/dead (PBMC [1]; donor one, urea 0.1 mol/liter, 17 hours): 55
Living/dead (PBMC [1]; donor one, urea 0.2 mol/liter, 17 hours): 3.6
Living/dead (PBMC [1]; donor one, urea 0.3 mol/liter, 17 hours): 1.8
Living/dead (PBMC [1]; donor one, urea 0.4 mol/liter, 17 hours): 0.2
Living/dead (PBMC [1]; donor one, urea 0.8 mol/liter, 17 hours): 0.04
Living/dead (PBMC [1]; donor one, urea 1.6 mol/liter, 17 hours, 0 = exclusively dead cells): 0
Living/dead (PBMC [1]; donor three, urea 0.05 mol/liter, 17 hours): 11.7
Living/dead (PBMC [1]; donor three, urea 0.1 mol/liter, 17 hours): 41.3
Living/dead (PBMC [1]; donor three, urea 0.2 mol/liter, 17 hours): 30.2
Living/dead (PBMC [1]; donor three, urea 0.3 mol/liter, 17 hours): 9
Living/dead (PBMC [1]; donor three, urea 0.4 mol/liter, 17 hours): 0.2
Living/dead (PBMC [1]; donor three, urea 0.8 mol/liter, 17 hours): 0.02
Living/dead (PBMC [1]; donor three, urea 1.6 mol/liter, 17 hours, 0 = exclusively dead cells): 0
Living/dead (PBMC [1]; donor two, urea 0.05 mol/liter, 17 hours): 15.9
Living/dead (PBMC [1]; donor two, urea 0.1 mol/liter, 17 hours): 1.7
Living/dead (PBMC [1]; donor two, urea 0.2 mol/liter, 17 hours): 6.6
Living/dead (PBMC [1]; donor two, urea 0.4 mol/liter, 17 hours): 1
Living/dead (PBMC [1]; donor two, urea 0.8 mol/liter, 17 hours): 0.1
Living/dead (PBMC [1]; donor two, urea 1.6 mol/liter, 17 hours): 0.06
dead versus living cells in the PBMC cultures (PBMC [1]; from a urea concentration of 0.4 mol/liter, 17 hours, regardless of the donor): more dead than living cells
ratio of living to dead cells compared to the untreated cells (PBMC [1]; urea 0 to 0.2 mol/liter, 17 hours): no significant reduction
total number of cells (cytolytic effect) (PBMC [1]; urea concentrations above 0.3 mol/liter, 17 hours): significant reduction in the total number of cells
IFN-γ secretion from PBMCs (PBMC [2]; urea 0.05 mol/liter): 26.2 Spots/2 × 10^6 cells
IFN-γ secretion from PBMCs (PBMC [2]; urea 0.1 mol/liter): 29.6 Spots/2 × 10^6 cells
IFN-γ secretion from PBMCs (PBMC [2]; urea 0.2 mol/liter): 26.4 Spots/2 × 10^6 cells
IFN-γ secretion from PBMCs (PBMC [2]; urea 0.3 mol/liter): 11.0 Spots/2 × 10^6 cells
IFN-γ secretion from PBMCs (PBMC [2]; urea 0.4 mol/liter): 18.2 Spots/2 × 10^6 cells
IFN-γ secretion from PBMCs (PBMC [2]; urea 0.8 mol/liter): 14.6 Spots/2 × 10^6 cells
IFN-γ secretion from PBMCs (PBMC [2]; urea 1.6 mol/liter): 13.4 Spots/2 × 10^6 cells
release of IFN-γ from cultures of peripheral blood mononuclear cells (PBMC [2]; urea 0.05 to 1.6 mol/liter): no significantly increased release of IFN-γ
toxicity of the urea contained in the injection solution for the experimental animal (rabbit): non-toxic
